Measured values taken from US7173063B1, “Topoisomerase poisons for the treatment of proliferative disorders” (Fred Hutchinson Cancer Research Center, priority 2000, dated 2007).

Legend:
[1] = system: Rat1a fibroblasts; assay: Effect of co-treatment with hydroxyurea (HU) on toxicity in Rat1a fibroblasts; format: cell-based, rat; settings: six-hour exposure; 0, 0.25, 0.5 or 1 mM HU
Procedure: FIG. 6 illustrates the effect of exposure time and hydroxyurea on the toxicity of compound Ia and compound IIa. […] Rat1a fibroblasts were exposed to compound during growth for either four or six hours, the media was changed, then cells were grown for an appropriate period such that total incubation time was 96 hours, and processed as described in the Example below. […] The bar graph insets for each graph show growth inhibition by HU alone.
(§1) Cells were plated at a density of 500 cells per well in opaque 96 well plates (Packard) in a volume of 135 μL per well of the appropriate media. The plates were incubated overnight to allow cell adherence. Seven two-fold dilutions of the test compounds were added in a volume of 15 μL per well in triplicate, and 15 μL of media containing an appropriate concentration of DMSO was added to control wells in triplicate. Plates were incubated at 37° C. for 96 hours. The media was then replaced with 100 μL per well of the appropriate media containing 2 μCi/mL of (methyl-^3H) thymidine (Amersham Pharmacia Biotech), then plates were incubated for a further 24 hours at 37° C. Cells were washed three times with PBS, then 100 μL per well of scintillant was added (Microscint 20, Packard), and sealed plates were counted in a microplate reader (Packard Topcount). For suspension chicken cells, (methyl-^3H) thymidine was added directly to the drug-containing media at a concentration of 20 μCi/mL (comprising one tenth of the media volume) and incubated overnight. The suspension cells were transferred to a UniFilter GF/C plate (Packard) and washed with PBS in a plate washer (Packard). After drying, 25 μL per well of scintillant (Microscint 20, Packard) was added, and sealed plates were counted. Toxicity is expressed as a percentage of the control counts. For experiments involving shorter exposures to compounds, cells were grown in the presence of compound for the appropriate time, then the media was replaced with fresh drug-free media, and incubation continued for the remainder of 96 hours, followed by the normal tritiated thymidine uptake and washing protocol.
A six-hour exposure was used to test whether the toxicity of the same set of compounds is dependent on ongoing DNA synthesis. […] Thus, in contrast to camptothecin and topotecan, compounds Ia and IIa show no marked time dependency for toxicity (FIG. 6A) and are not inhibited by HU (FIG. 6B), indicating critical mechanistic differences between these compounds and camptothecin.

[2] = system: ACHN, SW620, A549, MDA-N; assay: Thymidine incorporation toxicity assay in four cancer derived cell lines; format: cell-based, human; settings: for correlation between MDR1 activity and toxicity/sensitivity: A549, SW620, ACHN (MDR1 10, 31, 120); for toxicity in human cancer and vertebrate cells: FIG. 4
Procedure: (§2) Cell lines were grown at 37° C. in an atmosphere of 5% CO2. The chicken pre-B cell line DT40 and its derivatives (Bezzubova, et al., Cell 89: 185–93 (1997), Takata, et al., EMBO Journal 17: 5497–508 (1998), Yamaguchi-Iwai, et al., Molecular & Cellular Biology 18: 6430–5 (1998)) were grown in RPMI containing 10% fetal calf serum and 1% chicken serum. The remaining cell lines were grown in DMEM with 10% fetal calf serum.
(§3) Toxicity assays in mammalian cell lines were performed using tritiated thymidine incorporation as a measure of the number of viable cells. […] Drug toxicity was measured as follows:
as §1
A common mechanism of tumor resistance to chemotherapeutic agents is overexpression of the drug efflux protein MDR1 (Kane, et al., Advances in Drug Research 28: 182–252 (1996), Nooter, et al., Leukemia Research 18: 233–43 (1994)). MDR1 is overexpressed in many tumor derived cell lines (for instance see http://dtp.nci.nih.gov/), and its overexpression inversely correlates with sensitivity to certain compounds (Kane, et al., Advances in Drug Research 28: 182–252 (1996)).

[3] = Cell based assays (toxicity, unspecified)
[4] = system: chicken pre-B cell line DT40; assay: Thymidine incorporation toxicity assay in isogenic DT40 cells with or without KU70, RAD52, RAD54; format: cell-based; settings: for effect of loss of KU70 on toxicity: DT40 with or without KU70; for effect of loss of homologous recombination (RAD52 or RAD54) on toxicity: DT40 with or without RAD52 or RAD54
Procedure: as §2, §3, §1
In the case of Topo II poisons, the drug/enzyme complex directly produces a DSB, which could occur in all phases of the cell cycle and can apparently be repaired by either DSB repair pathway. Topo I poisons, however, create a single strand break that is converted to a DSB by passage of a replication fork during ongoing DNA synthesis (D'Arpa, et al., Cancer Research 50: 6919–24 (1990), Hsiang, et al., Cancer Research 49: 5077–82 (1989), Holm, et al., Cancer Research 49: 6365–8 (1989)). It has been proposed that DSB's created in this context can only be repaired by homologous recombination, additionally requiring proteins involved in sister chromatid cohesion (Castano, et al., Genes & Development 10: 2564–76 (1996), Castano, et al., Nucleic Acids Research 24: 2404–10 (1996), Walowsky, et al., Journal of Biological Chemistry 274: 7302–8 (1999)).

[5] = biological target: T1, purified Topo I (Homo sapiens, UniProt P11387); assay: In vitro assay for DNA strand-break formation in the presence of purified Topo I; format: biochemical; settings: purified Topo I, in vitro; data not shown
T1 sequence (P11387 1-765): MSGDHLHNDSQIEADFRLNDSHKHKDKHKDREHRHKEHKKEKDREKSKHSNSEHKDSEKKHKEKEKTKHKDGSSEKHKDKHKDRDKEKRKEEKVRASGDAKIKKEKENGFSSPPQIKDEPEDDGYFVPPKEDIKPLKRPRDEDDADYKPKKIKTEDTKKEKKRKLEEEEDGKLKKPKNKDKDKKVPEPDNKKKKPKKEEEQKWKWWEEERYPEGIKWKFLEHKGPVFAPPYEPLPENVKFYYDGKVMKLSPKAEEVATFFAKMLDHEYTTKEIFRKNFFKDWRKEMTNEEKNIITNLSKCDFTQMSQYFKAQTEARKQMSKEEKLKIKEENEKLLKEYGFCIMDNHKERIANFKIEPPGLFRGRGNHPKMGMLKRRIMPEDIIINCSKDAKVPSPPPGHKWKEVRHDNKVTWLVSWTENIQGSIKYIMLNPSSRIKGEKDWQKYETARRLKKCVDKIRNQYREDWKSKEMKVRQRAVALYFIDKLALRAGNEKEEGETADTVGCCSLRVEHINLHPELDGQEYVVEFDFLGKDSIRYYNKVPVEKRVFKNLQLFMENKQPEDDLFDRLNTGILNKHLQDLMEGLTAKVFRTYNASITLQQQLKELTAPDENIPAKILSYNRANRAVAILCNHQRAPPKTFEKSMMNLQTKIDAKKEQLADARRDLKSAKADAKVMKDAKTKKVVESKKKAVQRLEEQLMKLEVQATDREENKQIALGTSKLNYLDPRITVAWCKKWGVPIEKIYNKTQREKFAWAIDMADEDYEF

SMILES | change of toxicity caused by HU co-treatment [1] | inhibition of toxicity by co-treatment with HU [1] | relative sensitivity of ACHN and A549 [2] | correlation between MDR1 activity and toxicity/sensitivity [2] | toxicity in human cancer and vertebrate cells [2] | cell line against which most effective ([2]; four tumor derived cell lines) | IC50 compared to camptothecin [3] | effect of loss of KU70 on toxicity [4] | effect of loss of homologous recombination (RAD52 or RAD54) on toxicity [4] | strand-break induction [5] | differences in toxicity between the cell lines ([2]; four tumor derived cell lines)
O=c1c(Cl)c(Cl)cnn1CCCl [compound IIa] | slight accentuation of toxicity | not inhibited by co-treatment with HU | ACHN is more sensitive than A549 | No correlation | toxic in human cancer and vertebrate cells | most effective against the colon carcinoma derived cell line SW620 | higher IC50's | unaffected by loss of KU70 | only marginally affected | did not detect strand-break induction | 
O=C(CCl)Nc1ccc(C(=O)N/N=C/c2ccc(Cl)cc2)cc1 [compound Ia] | slight accentuation of toxicity | not inhibited by co-treatment with HU |  | No correlation | toxic in human cancer and vertebrate cells | most effective against the colon carcinoma derived cell line SW620 | higher IC50's | unaffected by loss of KU70 | only marginally affected | did not detect strand-break induction | no significant differences in toxicity
